Data on 4 molecules can be found in US20200261534A1, “NEW TREATMENTS OF MULTIPLE MYELOMA” (priority 2017, published 2020).

Experiment [1] can be described thus: Growth inhibition activity, comparative test of Example 3 (cell lines not given). The experiment is classed as cell-based. The following applies: Example 3, comparison with stapled versions. From the text:
Following the same protocol as the one disclosed in previous sections, the following activity data were obtained: […]

Another experiment concerns MM1S cells. Nature of the experiment: Subcutaneous xenograft model, in vivo synergy of S09 drug combinations. The following applies: MM1S s.c. xenograft, CB17-SCID mice; for Tumor volume: i.p.: B 0.5, C 50, D 0.5 mg/kg days 1 and 4, S09 4 mg/kg each 12 hours. More on the design: species or system CB17-SCID immunosuppressed mice. As for the experimental part: CB17-SCID immunosuppressed mice (female) of 6-7 weeks old housed and handled in a pathogen-free zone. They were purchased from Janvier Labs (France). All experiments were carried out within the facilities of the University of Salamanca (Spain).
Control: Medium (PBS), intraperitoneally (i.p.), each 12 hours on days 1 to 5.
Treatment Groups: • Monotherapy: • Bortezomib 0.5 mg/kg i.p. on days 1 and 4. • Cyclophosphamide 50 mg/kg i.p. on days 1 and 4 • Dexamethasone 0.5 mg/kg i.p. on days 1 and 4 • S09 4 mg/kg i.p. each 12 hours on days 1 to 7 • Double combinations: • Bortezomib 0.5 mg/kg i.p. on days 1 and 4+S09 4 mg/kg i.p. each 12 hours on days 1 to 7 • Cyclophosphamide 50 mg/kg i.p. on days 1 and 4+S09 4 mg/kg i.p. each 12 hours on days 1 to 7 • Dexamethasone 0.5 mg/kg i.p. on days 1 and 4+S09 4 mg/kg i.p. each 12 hours on days 1 to 7 • Bortezomib 0.5 mg/kg i.p. on days 1 and 4+Cyclophosphamide 50 mg/kg i.p. on days 1 and 4 • Cyclophosphamide 50 mg/kg i.p. on days 1 and 4+Dexamethasone 0.5 mg/kg i.p. on days 1 and 4 • Dexamethasone 0.5 mg/kg i.p. on days 1 and 4+Bortezomib 0.5 mg/kg i.p. on days 1 and 4 • Triple combinations: • Bortezomib 0.5 mg/kg i.p. on days 1 and 4+Dexamethasone 0.5 mg/kg i.p. on days 1 and 4+S09 4 mg/kg i.p. each 12 hours on days 1 to 7 • Cyclophosphamide 50 mg/kg i.p. on days 1 and 4+Dexamethasone 0.5 mg/kg i.p. on days 1 and 4+S09 4 mg/kg i.p. each 12 hours on days 1 to 7
Mice were shaved on the right flank and anesthetized by inhalation to decrease their mobility, were inoculated subcutaneously with 3×10^6 MM1S cells in 50 μl of RPMI-1640 medium and 50 μl of Corning @ Matrigel® Basement Membrane Matrix. […] This was estimated by measurements with a caliper of the two tumor diameters and using the following formula of a spheroid: […]
Where a and b correspond to the longest and shortest diameter, respectively. Tumor volume was monitored three times per week.
The treatment endpoint was determined by the value of tumor volume in the mouse (a range of 2000-2200 mm3).

The mark [2] stands for this setting: day of treatment 5, relative to day 1.
[3] abbreviates: day of treatment 10, relative to day 1.
Where [4] appears, read: day of treatment 15, relative to day 1.
Where [5] appears, read: day of treatment 24, relative to day 1.

Regarding “Pro-Lys-Val-Val-11e-Leu-Lys-Lys-Ala-Thr-Ala-Tyr-Ile (PKVVILKKATAYI; wild type sequence) [SEQ ID NO: 11]”, the growth inhibition activity result in experiment [1] is “does not present growth inhibition activity”.
Consider `O=P1(N(CCCl)CCCl)NCCCO1` (stereo not shown) [C, cyclophosphamide], for which the “normalized tumor volume percentage (%)” value is 100.00% in the experiment with MM1S cells (day of treatment 1 (= 100)); 156.92% in the experiment on MM1S cells (setting [2]); 247.48% in the experiment on MM1S cells (setting [3]); 552.57% in the experiment with MM1S cells (setting [4]); 1252.21% with MM1S cells (setting [5]). Also, the Tumor volume in the experiment on MM1S cells (day of treatment 1) is 120.75 mm^3; with MM1S cells (day of treatment 5), 189.48 mm^3; in the experiment with MM1S cells (day of treatment 10), 298.83 mm^3; with MM1S cells (day of treatment 15) it was 667.23 mm^3; in the experiment with MM1S cells (day of treatment 24), 1512.04 mm^3.
For `CC(C)C[C@H](NC(=O)[C@H](Cc1ccccc1)NC(=O)c1cnccn1)B(O)O` [B, bortezomib], the “normalized tumor volume percentage (%)” value in the experiment on MM1S cells (day of treatment 1 (= 100)) stood at 100.00%; in the experiment with MM1S cells (setting [2]), 138.36%; in the experiment with MM1S cells (setting [3]) it was 230.48%; in the experiment with MM1S cells (setting [4]), 470.62%; in the experiment on MM1S cells (setting [5]), 1410.31%. The Tumor volume is 119.96 mm^3 in the experiment with MM1S cells (day of treatment 1); 165.98 mm^3 in the experiment on MM1S cells (day of treatment 5); 276.48 mm^3 with MM1S cells (day of treatment 10); 564.56 mm^3 in the experiment on MM1S cells (day of treatment 15); 1691.81 mm^3 with MM1S cells (day of treatment 24).
`C[C@@H]1C[C@H]2[C@@H]3CCC4=CC(=O)C=C[C@]4(C)[C@@]3(F)[C@@H](O)C[C@]2(C)[C@@]1(O)C(=O)CO` [D, dexamethasone]: the “normalized tumor volume percentage (%)” value is on record as 100.00% in the experiment with MM1S cells (day of treatment 1 (= 100)); 110.62% in the experiment on MM1S cells (setting [2]); 270.68% in the experiment with MM1S cells (setting [3]); 524.90% with MM1S cells (setting [4]); 1206.21% with MM1S cells (setting [5]). The Tumor volume in the experiment with MM1S cells (day of treatment 1) is 120.35 mm^3; in the experiment with MM1S cells (day of treatment 5), 133.13 mm^3; in the experiment with MM1S cells (day of treatment 10) it was 325.76 mm^3; in the experiment on MM1S cells (day of treatment 15), 631.72 mm^3; in the experiment with MM1S cells (day of treatment 24) it was 1451.67 mm^3.
